Reference: patent publication US10688063B2, “Treating and/or preventing insulin-resistance related weight gain” (University of South Florida, priority 2013, dated 2020)

How the values were obtained:
[1] = test system: aPKC; assay: Effect of ceramide on aPKC immunoprecipitated from liver lysates of LF and HF fed mice; type: biochemical, mouse
Description: Standard (C57BI/6/SV129) mice consumed a standard low-fat or high-fat diet for 10 weeks. At 10 weeks mice were treated with or without insulin for 15 min prior to killing. Liver cell lysates were prepared as in Example 5 and aPKC activity assay was performed on the aPKC immunoprecipitate as in Example 5, except here the activity assays were carried out in the presence of the indicated concentrations of ceramide. Additionally, the levels of ceramide and sphingomyelin species in lipid extracts prepared from the liver cell lysates. Ceramide and sphingomyelin species were measured by liquid chromatography tandem mass spectrometry analysis of the lipid extracts of the liver lysates.

[2] = test system: aPKC; assay: aPKC activity in brains of heterozygous muscle-specific PKC-λ knockout mice (Western); type: in vivo, mouse; details: treated for 8 days
Description: Standard lab mice (“control” or “con” mice) and heterozygous muscle-specific PKC-λ knockout mice were fed standard chow containing 10% fat. Some mice were treated for 8 days with ICAPP. Some mice were acutely treated with insulin (1 U/kg body weight administered intraperitoneally) 15 minutes prior to killing. Brain tissues were collected and prepared for phospho-protein analysis. Activity/activation of aPKC was assessed by Western blot analyses of phospho-protein immunoreactivity followed by quantitative scanning of the blots.

[3] = test system: aPKC; assay: aPKC activity in liver and muscle of high fat fed (HFF) mice, 10 weeks treatment; type: in vivo, mouse; details: daily s.c. 10 weeks
[4] = test system: Ser473-Akt, Ser9-GSK3β, Thr555/560-PKC-λ/ζ, Thr2448-mTOR; assay: Hepatic phosphorylation of Ser473-Akt, Ser9-GSK3β, Thr555/560-PKC-λ/ζ, Thr2448-mTOR in HFF mice (Western); type: in vivo, mouse; details: 10 weeks
Description: (§1) Post mortem, liver tissue was removed and examined for immunoreactivity of the indicated signaling factors.
Tissue Preparation: To prepare cell lysates, liver and muscle tissue samples were homogenized in ice-cold buffer containing 0.25 mol/l sucrose, 20 mmol/l Tris/HCl (pH, 7.5), 2 mmol/l EGTA, 2 mmol/l EDTA, 1 mmol/l phenlysulfonlyfluoride (PMSF), 20 μg/ml leupeptin, 10 μg/ml aprotinin, 2 mmol/l Na4P2O7, 2 mmol/l Na3VO4, 2 mmol/l NaF, and 1 μmol/l microcystin, and then supplemented with 1% TritonX-100, 0.6% Nonidet and 150 mmol/l NaCl, and cleared by low-speed centrifugation.
Western Analysis: Western analysis for the indicated signaling factors and GAPDH (endogenous control) were conducted as described in Sajan and Farese. 2012 Diabetologia. 55:1446-1457, Standaert et al. 2004. J. Biol. Chem. 279:24929-24934, Sajan et al. 2012. Metabolism. 61:459-469, Sajan et al. 2009. Diabetologia. 52:1197-1207, Sajan et al. 2009. J. Lipid Res. 50:1133-1145, and Sajan et al. 2013. Diabetologia. 56:2507-2516 using […] anti-phospho-Ser^473-Akt antiserum, rabbit anti-glyceraldehyde-phosphate dehydrogenase (GAPDH) antiserum, rabbit anti-WD40-ProF antiserum, and rabbit anti-aPKC antiserum (Santa Cruz Biotechnologies, Santa Cruz, Calif.); rabbit anti-phospho-Thr560/555 PKC-ζ/λ/ι antiserum (Invitrogen, Carlsbad, Calif.); rabbit anti-p-Ser^256-FoxO1 and anit-FoxO1 antiserum (Abnova, Walnut, Calif.); mouse monoclonal anti-PKC-λ/ι antibodies (Transduction Antibodies, Bedford, Mass.); and rabbit anti-phospho-Ser^9-GSK3β antiserum, rabbit anti-phosphoSer^[…]-mTOR antiserum, and mouse anti-Akt antibodies (Cell Signaling Technologies, Danvers, Mass.). Samples from experimental groups were compared on the same blots and corrected for recovery as needed by measurement of GAPDH immunoreactivity.

[5] = test system: FoxO1, WD40/ProF; assay: Hepatic Ser256-FoxO1 phosphorylation and aPKC/Akt in WD40/ProF immunoprecipitates in HFF mice; type: in vivo, mouse; details: 10 weeks
Description: as §1
For the results shown in FIG. 10A, liver cell lysates were prepared as previously described. Phosphorylated FoxO1 and un-phosphorylated FoxO1 were analyzed using western blotting as previously described except rabbit anti-phospho-Ser^256-FoxO1 antisera and anti-FoxO1 antiserum was used.
For the results in FIG. 10B, the indicated immunoreactive proteins were analyzed in the immunopercipitates via western blot as previously described except that rabbit anti-aPKC-λ/ι, FoxO1, or WD40/ProF antisera were used.

[6] = test system: SREBP-1c, FAS, PEPCK, G6Pase; assay: Hepatic mRNA and protein levels of lipogenic and gluconeogenic enzymes in HFF mice; type: in vivo, mouse; details: 10 weeks, ad libitum-fed
Description: as §1
Nuclear preparations were also prepared as described in Sajan et al. 2009. Diabetologia. 52:1197-1207. Western analysis was conducted to evaluate the indicated immunoreactive proteins as in Example 7, except in this Example, rabbit polyclonal anti-GAPDH antiserum, rabbit polyclonal anti-FAS antiserum, rabbit polyclonal anti-PEPCK antiserum, rabbit polyclonal anti-G6Pase antiserum (Santa Cruz Biotechnologies, Santa Cruz, Calif.), and mouse monoclonal anti-SREBP-1 antibodies (Lab Vision Corp., Freemont, Calif.) were used to detect the indicated proteins.

[7] = Glucose tolerance, serum parameters, body weight, food intake, liver and abdominal fat in HFF mice; type: in vivo, mouse
Description: Briefly, […] body weight was injected intraperitoneally. After the glucose injection, blood glucose levels were measured at 0, 30, 60, 90 and 120 minutes post-injection. 15 minutes prior to killing, mice were injected with or without insulin (1 U/kg body weight). Serum glucose, triglycerides, and serum cholesterol were measured using methods generally known in the art. Liver triglycerides were also measured using methods generally known in the art. Over the 10 weeks, body weight and food intake were measured weekly. Overall change in bodyweight was also evaluated. Additionally, epididymal plus retroperitoneal fat (also abbreviated PG/PN fat) was measured and evaluated as g/100 g of body weight. After killing, liver tissue samples were sectioned and prepared for Oil red O staining by methods generally known in the art. Samples were Oil Red O stained to observe hepatic fat contents.

[8] = biological target: T1, Akt2 (Mus musculus, UniProt Q60823); assay: Akt2 activity in liver and muscle of HFF mice, 10 weeks treatment; type: in vivo; details: daily s.c. 10 weeks
T1 construct: from tissue; host or cells: mouse liver and muscle
T1 sequence (Q60823 whole entry): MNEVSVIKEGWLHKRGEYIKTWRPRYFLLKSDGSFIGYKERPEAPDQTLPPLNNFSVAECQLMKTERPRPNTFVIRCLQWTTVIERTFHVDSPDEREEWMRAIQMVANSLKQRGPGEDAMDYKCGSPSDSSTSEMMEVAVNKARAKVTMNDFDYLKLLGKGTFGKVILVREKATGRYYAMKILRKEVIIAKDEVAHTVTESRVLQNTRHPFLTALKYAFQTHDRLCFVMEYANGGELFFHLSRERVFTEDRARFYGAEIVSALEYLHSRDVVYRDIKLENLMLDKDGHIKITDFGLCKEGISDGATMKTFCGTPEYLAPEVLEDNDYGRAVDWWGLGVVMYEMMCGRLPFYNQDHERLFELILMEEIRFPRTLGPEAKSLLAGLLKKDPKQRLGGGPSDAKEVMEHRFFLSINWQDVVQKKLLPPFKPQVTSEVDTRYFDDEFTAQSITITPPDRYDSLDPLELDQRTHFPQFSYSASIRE

[9] = toward, not fully to, normal levels

Question: With ceramide as the compound, how does the “activity of aPKC immunoprecipitated from liver lysates” value (shortened to “activity of aPKC immunoprecipitated”) ([1]; HFF mice) read?
Answer: only a weak effect

Question: And the “activity of aPKC immunoprecipitated” value ([1]; HFF mice treated acutely with insulin)?
Answer: diminished activity

Question: And the “activity of aPKC immunoprecipitated” value ([1]; LFF/control mice)?
Answer: strongly activated

Question: With `NC(=O)c1ncn([C@@H]2C[C@H](COP(=O)(O)O)[C@@H](O)[C@H]2O)c1N` [ICAPP] as the compound, how does the “aPKC activity in the brain” value [2] read?
Answer: decreased

Question: For `NC(=O)c1ncn(C2CC(COP(=O)(O)O)C(O)C2O)c1N` (stereo not drawn) [ICAP], which “resting and insulin-stimulated hepatic aPKC activity” value ([3]; ICAP 1 mg/kg, ACPD 10 mg/kg, to control levels) is on record?
Answer: diminished

Question: What about the “muscle aPKC activity” value [3, 9] of the same compound?
Answer: increased

Question: What about the “hepatic phosphorylation of Ser9-GSK3β and Ser2448-mTOR” value [4] of the same compound?
Answer: not altered

Question: What about the “insulin-stimulated Akt2 activity in liver (Ser473-Akt phosphorylation)” value [4] of the same compound?
Answer: increased

Question: What about the “resting Akt2 activity in liver (Ser473-Akt phosphorylation)” value [4] of the same compound?
Answer: did not alter

Question: What about the “basal/resting and exogenous insulin-stimulated hepatic aPKC activities (Thr555/560 phosphorylation)” value ([4]; to levels of control low fat fed mice) of the same compound?
Answer: reduced

Question: And the “WD40/ProF-associated Akt activity” value ([5]; HFF mice liver)?
Answer: increased

Question: And the “aPKC binding to WD40/ProF” value ([5]; HFF mice liver)?
Answer: diminished

Question: And the “basal/resting and insulin-stimulated hepatic FoxO1 phosphorylation” value ([5]; HFF mice)?
Answer: fully or partially restored

Question: And the “hepatic mRNA levels of SREBP-1c, FAS, PEPCK, G6Pase versus control/low-fat fed mice” value [6]?
Answer: not significantly different

Question: And the “hepatic protein levels of SREBP-1c, FAS, PEPCK, G6Pase versus control/low-fat fed mice” value [6]?
Answer: not significantly different

Question: And the “HFF-induced increases in abdominal fat depots” value ([7]; 10 weeks)?
Answer: improved

Question: What about the food intake ([7]; 10 weeks) of the same compound?
Answer: without altering

Question: And the “increases in liver triglycerides and fat content” value ([7]; 10 weeks)?
Answer: largely prevented

Question: And the “increases in serum triglycerides and cholesterol levels” value ([7]; 10 weeks)?
Answer: largely prevented

Question: What about the weight gain ([7]; 10 weeks) of the same compound?
Answer: largely prevented

Question: And the fasting insulin levels ([7]; still modestly elevated)?
Answer: improved

Question: And the “glucose tolerance, basal glucose levels (fasting and fed), acute effects of insulin on serum glucose” value ([7]; to levels indistinguishable from control chow-fed mice)?
Answer: improved

Question: And the “hepatic Akt2 activity” value ([8]; ICAP 1 mg/kg, ACPD 10 mg/kg)?
Answer: increased further

Question: And the “muscle Akt2 activity” value [8, 9]?
Answer: increased
